Measurements from patent US9518064B2, “Imidazothiadiazole and imidazopyridazine derivatives as protease activated receptor 4 (PAR4) inhibitors for treating platelet aggregation” (BRISTOL-MYERS SQUIBB COMPANY, priority 2012, dated 2016).
Where no end group is shown, it is not given here.

Assays:
PAR4 [1] = target: T1, PAR4 (Homo sapiens (Human), UniProt Q96RI0); experiment: FLIPR assay in PAR4-expressing HEK293 cells (calcium mobilization); format: cell-based; settings: PAR4 antagonist activity, FLIPR assay as described in Example A
PAR4 [2] = target: T1, PAR4; experiment: Gamma thrombin induced platelet aggregation assay (PRP assay); format: cell-based; settings: γ-thrombin induced platelet aggregation in PRP
[3] = ACS patients; cited from earlier work
PAR1 = PAR1 (Homo sapiens (Human), UniProt P25116); experiment: FLIPR PAR1 counter screen (SFFLRR-induced calcium mobilization) in HEK293 cells; format: cell-based; settings: Example A, routinely tested; read-out: EC50 of agonist peptide in the assay (PAR1 counter screen)
Chain of PAR1 (P25116 22-425): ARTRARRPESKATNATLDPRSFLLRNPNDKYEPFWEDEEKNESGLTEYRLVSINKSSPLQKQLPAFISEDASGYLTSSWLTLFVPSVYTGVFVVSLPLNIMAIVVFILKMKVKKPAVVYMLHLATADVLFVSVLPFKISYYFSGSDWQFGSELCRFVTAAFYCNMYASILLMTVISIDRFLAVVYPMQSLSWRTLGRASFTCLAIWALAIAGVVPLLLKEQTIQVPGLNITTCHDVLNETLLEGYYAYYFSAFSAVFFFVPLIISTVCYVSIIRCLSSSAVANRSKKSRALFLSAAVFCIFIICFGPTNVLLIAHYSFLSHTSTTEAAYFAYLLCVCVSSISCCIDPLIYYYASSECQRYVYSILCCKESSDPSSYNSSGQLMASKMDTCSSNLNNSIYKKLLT

T1 sequence (Q96RI0 18-385): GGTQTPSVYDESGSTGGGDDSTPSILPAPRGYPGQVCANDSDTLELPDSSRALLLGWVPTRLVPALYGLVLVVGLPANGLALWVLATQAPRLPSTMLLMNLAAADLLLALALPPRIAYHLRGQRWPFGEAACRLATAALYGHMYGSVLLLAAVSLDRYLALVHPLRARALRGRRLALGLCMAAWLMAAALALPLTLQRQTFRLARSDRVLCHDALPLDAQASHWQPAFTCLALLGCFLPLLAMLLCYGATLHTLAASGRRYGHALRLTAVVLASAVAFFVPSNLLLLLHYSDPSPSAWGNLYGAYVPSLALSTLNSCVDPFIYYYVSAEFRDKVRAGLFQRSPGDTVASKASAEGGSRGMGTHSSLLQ

Row | Compound | IC50 (PAR4 [1]) | IC50 (PAR4 [2]) | also measured
1 | COc1cc(OCc2cccc(-c3ccc(C(=O)OC(C)(C)C)nc3)c2)c2cc(-c3cn4nc(OC)sc4n3)oc2c1 [Example 60] | 4.18 nM | 81.3 nM | –
2 | COc1cc(OCc2cccc(-c3ccc([N+](=O)[O-])nc3)c2)c2cc(-c3cn4nc(OC)sc4n3)oc2c1 [Example 28] | – | 24.6 nM | –
3 | COc1cc(OCc2cccc(-c3cncnc3)c2)c2cc(-c3cn4nc(C(C)(F)F)sc4n3)oc2c1 [Example 63, 2-(1,1-Difluoroethyl)-6-(6-methoxy-4-((3-(pyrimidin-5-yl)benzyl)oxy)benzofuran-2-yl)imidazo[2,1-b][1,3,4]thiadiazole] | 4.04 nM | 2430 nM | –
4 | CCOC(=O)N[C@@H]1CC[C@@H]2[C@@H](C1)C[C@H]1C(=O)O[C@H](C)[C@H]1[C@H]2/C=C/c1ccc(-c2cccc(F)c2)cn1 [vorapaxar] | – | – | reduction of cardiovascular events [3]: did not significantly reduce; risk of major bleeding [3]: significantly increased
5 | COc1nn2cc(-c3nc4c(OCc5cccc(-c6ccoc6)c5)cccc4o3)nc2s1 [Example 81, 4-((3-(Furan-3-yl)benzyl)oxy)-2-(2-methoxyimidazo[2,1-b][1,3,4]thiadiazol-6-yl)benzo[d]oxazole] | 22.1 nM | 5000 nM | –
6 | COc1ccc(-c2nccc(COc3cc(OC)cc4oc(-c5cn6nc(OC)sc6n5)cc34)n2)cc1 [Example 100] | 0.76 nM | 1.8 nM | –
7 | COc1cc(OCc2cccc(-c3cnsc3)c2)c2cc(-c3cn4nc(OC)sc4n3)oc2c1 [Example 48] | 1.03 nM | 65.9 nM | –
8 | COc1cc(OCc2cccc(-c3ccc4c(c3)OCO4)c2)c2cc(-c3cn4nc(OC)sc4n3)oc2c1 [Example 18] | 3.5 nM | 68.2 nM | –
9 | COc1cc(OCc2ccnc(-c3ccc(C(=O)N(C)C)cc3)n2)c2cc(-c3cn4nc(OC)sc4n3)oc2c1 [Example 98] | 0.29 nM | 1.67 nM | –
10 | COc1cc(OCc2cccc(-c3ccc4c(c3)OCCO4)c2)c2cc(-c3cn4nc(OC)sc4n3)oc2c1 [Example 31] | – | 49.9 nM | –
11 | COc1cc(OCc2cccc(C3(O)CCOCC3)n2)c2cc(-c3cn4nc([C@H](C)F)sc4n3)oc2c1 [Example 110, (S)-4-(6-(((2-(2-(1-Fluoroethyl)imidazo[2,1-b][1,3,4]thiadiazol-6-yl)-6-methoxybenzofuran-4-yl)oxy)methyl)pyridin-2-yl)tetrahydro-2H-pyran-4-ol] | 0.41 nM | 87.6 nM | –
12 | COc1cc(OCc2cccc(-c3cncnc3)c2)c2cc(-c3cn4nc([C@H](C)F)sc4n3)oc2c1 [Example 64, (S)-2-(1-Fluoroethyl)-6-(6-methoxy-4-((3-(pyrimidin-5-yl)benzyl)oxy)benzofuran-2-yl)imidazo[2,1-b][1,3,4]thiadiazole] | – | 490 nM | –
13 | COc1cc(OCc2cccc(C3=CCOCC3)c2)c2cc(-c3cn4nc(OC)sc4n3)oc2c1 [Example 93] | 0.71 nM | 105 nM | –
14 | COc1cc(OCc2cccc(-c3ccc(F)nc3)c2)c2cc(-c3cn4nc(C(C)(F)F)sc4n3)oc2c1 [Example 68] | 3.37 nM | 2230 nM | –
15 | COc1cc(OCc2cccc(-c3ccc4nccn4c3)c2)c2cc(-c3cn4nc(OC)sc4n3)oc2c1 [Example 23] | – | 629 nM | –
16 | COc1cc(OCc2ccnc(-c3ccnc(F)c3)n2)c2cc(-c3cn4nc(OC)sc4n3)oc2c1 [Example 97, 6-(4-((2-(2-Fluoropyridin-4-yl)pyrimidin-4-yl)methoxy)-6-methoxybenzofuran-2-yl)-2-methoxyimidazo[2,1-b][1,3,4]thiadiazole] | 0.36 nM | 2.97 nM | –
17 | COc1cc(COc2cc(OC)cc3oc(-c4cn5nc(OC)sc5n4)cc23)cc(-c2cnc(OC)nc2)c1 [Example 71] | 0.5 nM | 3.61 nM | –
18 | SFFLRR [SFFLRR] | – | – | EC50 (PAR1): 600 nM
19 | COc1cc(OCc2cccc(-c3ccc(F)cn3)c2)c2cc(-c3cn4nc([C@H](C)F)sc4n3)oc2c1 [Example 69] | – | 13.1 nM | –
20 | CSc1nn2cc(-c3nc4c(OCc5ccccc5-c5ccccc5)cccc4o3)nc2s1 [Example 80] | 3130 nM | – | –
21 | COc1cc(OCc2cccc(C3(OC)CCOCC3)n2)c2cc(-c3cn4nc(OC)sc4n3)oc2c1 [Example 111, 2-Methoxy-6-(6-methoxy-4-((6-(4-methoxytetrahydro-2H-pyran-4-yl)pyridin-2-yl)methoxy)benzofuran-2-yl)imidazo[2,1-b][1,3,4]thiadiazole] | 0.23 nM | – | –
22 | COc1cc(OCc2cccc(C3=CCCCC3)c2)c2cc(-c3cn4nc(OC)sc4n3)oc2c1 [Example 94] | 2.21 nM | – | –
23 | COc1cc(OCc2cccc(-c3ccc(C#N)c(F)c3)c2)c2cc(-c3cn4nc(OC)sc4n3)oc2c1 [Example 30] | – | 125 nM | –
24 | COc1ccc(-c2cncc(COc3cc(OC)cc4oc(-c5cn6nc(OC)sc6n5)cc34)c2)cc1 [Example 73] | 2.18 nM | – | –
25 | COc1cc(OCc2cncc(-c3ccc(Cl)nc3)c2)c2cc(-c3cn4nc(OC)sc4n3)oc2c1 [Example 74] | 1.57 nM | – | –
